Data from US20070059687A1, “Process for evaluating phagocytotic function and use thereof” (priority 2001, published 2007).

Columns and labels:
[1] = tested on: Micrococcus luteus; assay: Lysis evaluated by decrease in turbidity at 600 nm; format: cell-based; details: lysozyme 10,000 unit/ml
Protocol: (§1) Enterococcus faecalis was inoculated in 50 ml of the aforementioned BHI liquid medium, and cultured at 37° C. for 8 hours or longer. This culture liquid was centrifuged at 4° C. for 10 minutes at 2,000×g to collect the bacteria, followed by subjecting to a heat treatment in an autoclave (120° C., for 10 minutes) after suspending in PBS. Next, the suspension was centrifuged at 4° C. for 10 minutes at 2,000×g, and the supernatant was discarded. Precipitates were suspended in 1 ml of PBS, and thereafter, subjected to freeze-drying. This freeze-dried sample was suspended in 5 mmol/l Tris-hydrochloric acid (pH 6.0), 2 mmol/l magnesium chloride containing 0 to 10% DMSO to give the samples for N-acetylmuramidase. Further, Micrococcus luteus (JCM1464) was inoculated in 5 ml of BHI liquid medium (supra), and cultured at 37° C. for 8 hours or longer. The cultured bacterial liquid was centrifuged at 4° C. for 10 minutes at 2,000×g to collect the bacteria. After discarding the supernatant, and suspending and washing the bacterial pellet with 5 ml of PBS, centrifugation was conducted once again at 4° C. for 10 minutes at 2,000×g to collect the bacteria. […] Enzymatic activity was evaluated on the basis of the decrease in turbidity of the sample at the absorbance of 600 nm using a microplate reader. […] Additionally, no decrease in enzymatic activity was found with DMSO at the concentration of 2% or less. […] The results are show in FIG. 4(a) to (c) and Table 3 below.

[2] = tested on: Enterococcus faecalis; assay: Lysis evaluated by decrease in turbidity at 600 nm; format: cell-based
From the text: (§2) Conditions for the enzyme to lyse Staphylococcus aureus (ATCC 12600), Staphylococcus epidermidis (ATCC 14990), Pseudomonas aeruginosa (ATCC 10145), Enterococcus faecalis (ATCC 19433) and Escherichia coli (ATCC 11775) were studied. For Staphylococcus aureus and Staphylococcus epidermidis, lysostafin was used as the lytic enzyme (Bur. J. Biochem., 38, 293-300, 1973). […] Further, for Pseudomonas aeruginosa and Escherichia coli, PBS containing 70 mmol/l sodium hydroxide was used. Each type of these bacteria was inoculated in 5 ml of BHI (Brain Heart Infusion) liquid medium (manufactured by DIFCO), and cultured at 37° C. for 8 hours or longer. Thus cultured bacterial liquid was collected by centrifugation at 4° C. for 10 minutes at 2,000×g. The collected bacteria were suspended in PBS to give a sample.
(§3) Lysis was evaluated by decrease in turbidity of the bacterial liquid at the absorbance of 600 nm using a microplate reader. Consequently, Staphylococcus aureus and Staphylococcus epidermidis were lysed by lysostafin. In respect of Pseudomonas aeruginosa and Escherichia coli, no enzymatic treatment was required because lysis was conducted with PBS containing 70 mmol/l sodium hydroxide. […] Moreover, when the bacterium incorporated upon phagocytotic action is for example, Pseudomonas aeruginosa, Escherichia coli or the like, bacterial cell wall is lysed during the alkaline treatment to result in the state in which the gene is exposed. Therefore, it is not necessary to conduct this enzymatic treatment. Each enzyme for the pretreatment which is used in lysis of the foreign microorganism according to the present invention is effective not only for the aforementioned bacterial strain, but also for other bacterial strain that includes other genus staphylococcus, genus streptococcus, genus bacillus, genus micrococcus and the like. […] The results are illustrated in FIG. 3, specifically, in regard to: (a) Staphylococcus aureus and Staphylococcus epidermidis, (b) Pseudomonas aeruginosa and Escherichia coli, and (c) Enterococcus faecalis.
as §1

[3] = tested on: Staphylococcus epidermidis; assay: Lysis evaluated by decrease in turbidity at 600 nm; format: cell-based; details: lysostafin 50 unit/ml
From the text: as §2, §3, §1

[4] = tested on: digested samples; assay: Influence of surfactant added to hybridization solution on signal detection; format: cell-based; details: for detection sensitivity: surfactant added to the probe dilution solution, SDS 0.25%
Protocol: A solution containing 15 ng of a digoxigenin labelled DNA probe prepared with a probe dilution solution (including 0.25% SDS, 600 μl of salmon sperm DNA, 50 μl of 100× Denhardt's solution, 500 μl of a hybridization stock solution, 2250 μl of formamide, 1000 μl 50% dextran sulfate) is coated on the smeared site, and the slide was left to stand still in a humid box at 37° C. to 42° C. for 2 hours. A probe solution without including SDS was determined as a control. The digoxigenin labelled DNA probe was produced by a nick translation method. Thereafter, a hybridization washing solution (prepared by mixing a hybridization stock solution (13.15 g of sodium chloride, 6.615 g of trisodium citrate dihydrate, adjusted to give the total volume of 75 ml with sterile purified water) in a ratio of the hybridization stock solution:sterile purified water:formamide=5:4:50) was provided in three staining bottles, and sequentially the sample was immersed at 42° C. for 10 minutes, respectively.
The digested samples produced according to the process described in Example 17(1) and [2] were used as specimens. […] In addition, the detection sensitivity could be improved by lauryl sarcosine, BRIJ 35 or Tween 20.

[5] = tested on: specimen A-SA (Staphylococcus aureus); assay: In situ hybridization of clinical blood specimens of patients suspected of sepsis; format: cell-based; details: 0.25% SDS added to probe dilution solution, FIG. 1
Protocol: As clinical specimens, 12 specimens of blood collected from patients suspected as suffering from sepsis (specimens A to L) were used. Ten ml of heparinized venous blood was collected from each patient, and after admixing the blood with a reagent for separating blood (225 mg of sodium chloride, 1.5 g of dextran (MW: 200,000-300,000)), adjusted to give the total volume of 25 ml with sterile purified water) at a ratio of 4:1, a leukocyte fraction (upper layer) was obtained by leaving to stand still at 37° C. for 30 minutes. […] The slide glass was immersed in PBS for 10 minutes, and thereafter, in a solution of an enzyme pretreatment reagent (prepared by mixing 1.25 g of saponin, 1.25 ml of t-octylphenoxypolyethoxyethanol (specific gravity: 1.068 to 1.075 (20/4° C.), pH (5 w/v %) 5.5-7.5) and 25 ml of the PBS stock solution, and adjusting to give the total volume of 50 ml with sterile purified water) diluted to 10 fold in sterile purified water, and allowing infiltration on a shaker for 10 minutes. […] Then, it was immersed in PBS containing 0.2 mol/l hydrochloric acid (prepared by adding hydrochloric acid to the PBS stock solution, 20 fold dilution in sterile purified water, and adjusting to give the final concentration of hydrochloric acid of 0.2 mol/l) and allowed infiltration on a shaker for 10 minutes as it was. […] A probe solution without including SDS was determined as a control. […]

[6] = tested on: EF digested sample; assay: Enzymatic treatment of digested sample, bacterial bodies in leukocytes by acridine orange staining; format: cell-based, Enterococcus faecalis; details: N-acetylmuramidase fixed at 100 unit/ml
Protocol: Using the slide glass having each digested sample smeared thereon, the enzymatic pretreatment was performed according to the process described in Example 3. Next, the slide glass after completing the enzymatic pretreatment was placed in a humid box, and the reaction was allowed by dropping 1 ml of each enzyme solution prepared to give each titer on the smeared site of the specimen. Thereafter, the slide glass was immersed in PBS containing 0.2 mol/l hydrochloric acid, and in 70% ethanol respectively, for 10 minutes, and air dried. After immersing this slide glass in PBS containing 70 mmol/l sodium hydroxide for 3 minutes, and in 70% ethanol for 10 minutes, it was air dried and stained with 1% acridine orange staining solution. Then, evaluation was made with a fluorescence microscope (×1,000). For Staphylococcus aureus and Staphylococcus epidermidis, examination of the optimal titer was conducted with lysostafin. […] The determination was made as adequate when no bacterial body was identified in the leukocytes by the enzymatic treatment.
Using a slide glass including each digested sample smeared thereon, examination was conducted according to the process described in example 17 (2). Time period of the enzymatic treatment in this test was 30 minutes, and the temperature for examination was 4° C., 25° C., 37° C., 42° C., and 60° C.
Using the slide glass including each digested sample smeared thereon, examination was conducted according to the process described in example 17 (2). […] Determination was conducted according to the process described in example 17 (2).

## C[S+](C)[O-] [DMSO, dimethylsulfoxide]
[1]
  DMSO concentration at which decrease in activity was found: ≥ 5%
  DMSO concentration at which no decrease in enzymatic activity was found: ≤ 2%
[2]; DMSO 0 to 10%, N-acetylmuramidase 300 unit/ml
  influence on N-acetylmuramidase activity: hardly influenced
[3]
  DMSO concentration at which decrease in activity was found: ≥ 5%
  DMSO concentration at which no decrease in enzymatic activity was found: ≤ 2%

## CCCCCCCCCCCCN(C)CC(=O)O [Lauryl sarcosine]
[4]
  detection sensitivity: improved

## CCCCCCCCCCCCOS(=O)(=O)[O-].[Na+] [SDS, sodium dodecyl sulfate]
[5]
  detection sensitivity of the signal: markedly elevated
[4]; SDS at various concentrations
  preferable concentration: ≤ 1%
[4]
  detection sensitivity: dramatically enhanced

## lysozyme: lytic enzyme (Seikagaku Corporation)
[6]; lysozyme titer 10 U/mL
  enzymatic treatment determination: inadequate
[6]; lysozyme titer 100 U/mL
  enzymatic treatment determination: inadequate
[6]; lysozyme titer 1,000 U/mL
  enzymatic treatment determination: inadequate
[6]; lysozyme titer 10,000 U/mL
  enzymatic treatment determination: adequate
[6]; lysozyme titer 100,000 U/mL
  enzymatic treatment determination: adequate
[1]; added DMSO 0 % (control)
  Decrease in turbidity of bacteria: 0.689 ± 0.028 O.D./3 minutes
[1]; added DMSO 0.1 %
  Decrease in turbidity of bacteria: 0.678 ± 0.026 O.D./3 minutes
[1]; added DMSO 1 %
  Decrease in turbidity of bacteria: 0.660 ± 0.026 O.D./3 minutes
[1]; added DMSO 2 %
  Decrease in turbidity of bacteria: 0.653 ± 0.024 O.D./3 minutes
[1]; added DMSO 5 %
  Decrease in turbidity of bacteria: 0.566 ± 0.017 O.D./3 minutes
[1]; added DMSO 10 %
  Decrease in turbidity of bacteria: 0.464 ± 0.016 O.D./3 minutes
[2]; lysozyme in combination with N-acetylmuramidase versus N-acetylmuramidase alone, FIG. 3(c)
  lytic activity: more excellent lytic activity
